Key:
[1] = tested on: rats; experiment: Learned helplessness model of depression in rats; format: in vivo, rat (male SD)
From the text: From the effects of existing antidepressants and the like on this system, this test is deemed a higher level animal model in rodents.
The male SD rats (190 to 260 g; Charles River Japan Inc.) were used in this study. On Day 1 of experiment, a partition board was placed in the center of the shuttle box to create two compartments so that the animals could not move from one compartment to another (220×200×260 mm). In each compartment, one rat was placed. The animals were retained in the shuttle box for 50 minutes and exposed to electrical shocks (IES) given via stainless floor grids with the light on. […]
On Day 2 of experiment, the partition board in the center of the shuttle box was removed and replaced by a hurdle 2 cm in height to create two comportments so that the animals could move from one compartment to another. […] Animal's behavior was evaluated according to the following procedures.
FR1: A buzzer was activated for 10 seconds. […] This procedure counted as one trial, and was continuously repeated 15 times.
FR2: Electric stimuli (0.5 mA) were applied for 10 seconds to a rat via the floor grids in the compartment where the animal stayed. […] This procedure counted as one trial, and was continuously repeated 15 times. […]

[2] = tested on: mice; experiment: Forced swim test in mice; format: in vivo, mouse (male ddY-strain)
From the text: The forced swim test in rats and mice is widely used for test system which evaluates antidepressant activities (Arch. Int. Pharmacodyn. Ther. 229, p.327 (1977)). The forced swim test is means for evaluating depressive state using the length of time during which the animal ceases its escape behavior due to a sense of helplessness (immobility time) as an index thereof by placing a mouse or a rat in water in an inescapable cylinder. Since immobility time is shortened by existing antidepressants, this is known as an animal model of depression. The male ddY-strain mice (20 to 29 g; Japan SLC, Inc.) were used in this study. A transparent acrylic water bath 10 cm in diameter and 25 cm in height was filled with water at 23° C.±1° C. to a depth of 10 cm. Each mouse was slowly placed in the water bath. At 2 minutes after placement in the bath, immobility time (duration during which no escape behavior was observed) was measured for 4 minutes. The test compound was used for the test in suspension in distilled water for injection (manufactured by Otsuka Pharmaceutical Co.,) containing 0.5 w/v % MC (methylcellulose). […] The antidepressant activity of the test compound was evaluated with the immobility time for the vehicle control group and that for the test compound dose group as indexes. […]

[3] = tested on: rats; experiment: Forced swim test in rats; format: in vivo, rat (male SD-strain)
From the text: The forced swim test in rats and mice is widely used for test system which evaluates antidepressant activities (Arch. Int. Pharmacodyn. Ther. 229, p.327 (1977)). The forced swim test is means for evaluating depressive state using the length of time during which the animal ceases its escape behavior due to a sense of helplessness (immobility time) as an index thereof by placing a mouse or a rat in water in an inescapable cylinder. Since immobility time is shortened by existing antidepressants, this is known as an animal model of depression. The male SD-strain rats (200 to 270 g; Charles River Japan Inc.) were used in this study. A transparent acrylic water bath 18 cm in diameter and 40 cm in height was filled with water at 25° C.±1° C. to a depth of 19 cm. Each rat was slowly placed in the water bath, allowed to stand for 15 minutes, then removed from the bath and dried with a piece of paper towel. The animals were then dried under a table light for 15 minutes and returned to the respective cages (induction of pathological condition). On the following day, the rats were slowly placed in the same water bath. Immediately, immobility time was measured for 5 minutes. […] The antidepressive action of the test compound was evaluated with the immobility time for the vehicle control group and that for the test compound dose group as indexes. […]

In the case of `Cc1ccc(C(=O)Nc2nc(-c3ccco3)c(C(=O)C3CCOCC3)s2)cn1` [(IC)], the “escape rate (escape response %)” value ([1]; rats with IES loading, FR2 session, dose of 0.3 mg/kg orally 1 hour before the FR1 session) is reported as 88.7±6.7%, the “action on the escape rate reductions by IES loading in the FR2 session” value ([1]; rats, single oral dose, in words) is reported as “significant ameliorating action” and the immobility time ([2]; mice, 0.1 mg/kg orally 1 hour before the test, measured for 4 minutes, vehicle 179.0 ± 15.2) is reported as 53.1 ± 11.0 s. The “immobility time compared with that for the vehicle control group” value ([2]; mouse, in words) was “shortened”, the “immobility time compared with that for the vehicle control group” value ([3]; rat, in words) was “shortened” and the immobility time ([3]; rats, 0.1 mg/kg orally 1 hour before the test, measured for 5 minutes, vehicle 204.0 ± 21.0) was 81.5 ± 15.1 s.

From US9249135B2, “Therapeutic agent for mood disorders” (KYOWA HAKKO KIRIN CO., LTD., priority 2009, dated 2016)
